In ChEMBL document CHEMBL1130679, “Novel phosphate mimetics for the design of non-peptidyl inhibitors of protein tyrosine phosphatases” (Bioorg Med Chem Lett, 1998):

Target: T1, Tyrosine-protein phosphatase non-receptor type 1 (Homo sapiens, UniProt P18031)
T1 sequence (P18031 whole entry): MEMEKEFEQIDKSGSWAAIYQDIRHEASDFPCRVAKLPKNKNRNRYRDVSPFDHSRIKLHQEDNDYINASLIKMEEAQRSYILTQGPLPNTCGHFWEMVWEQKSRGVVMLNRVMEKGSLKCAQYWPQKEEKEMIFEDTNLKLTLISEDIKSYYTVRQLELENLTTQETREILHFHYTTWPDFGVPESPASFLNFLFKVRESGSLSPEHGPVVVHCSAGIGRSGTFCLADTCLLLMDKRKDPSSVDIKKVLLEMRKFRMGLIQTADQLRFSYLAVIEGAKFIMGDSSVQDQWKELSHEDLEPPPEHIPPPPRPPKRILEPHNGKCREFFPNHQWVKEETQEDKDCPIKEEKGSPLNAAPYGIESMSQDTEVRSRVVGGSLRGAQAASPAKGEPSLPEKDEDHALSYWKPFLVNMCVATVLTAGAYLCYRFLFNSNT
Experiment: Inhibitory activity against PTP1B as a model Protein tyrosine […] (PTP) using fluorescein diphosphate as substrate at Km concentration (20 uM) at th

SMILES	IC50 [µM]
O=P(O)(O)OC(F)(F)c1cccc(-c2ccccc2)c1	15

Target: T1, Tyrosine-protein phosphatase non-receptor type 1
Experiment: Inhibitory activity against protein tyrosine phosphatase 1B (PTP1B) using fluorescein diphosphate as substrate at Km concentration (20 uM)

SMILES	IC50 [µM]
O=S(=O)(O)C(F)(F)c1cccc(-c2ccccc2)c1	115
O=C(O)C(F)(Oc1ccc2ccccc2c1)C(=O)O	320
FC(F)(c1ccc2ccccc2c1)c1nnn[nH]1	230
O=P(O)(O)OC(F)(F)c1ccc2ccccc2c1	35
O=C(O)C(F)(Oc1cccc(-c2ccccc2)c1)C(=O)O	250
O=C(O)C(F)(F)c1cccc(-c2ccccc2)c1	435
FC(F)(c1cccc(-c2ccccc2)c1)c1nnn[nH]1	195
O=S(=O)(O)C(F)(F)c1ccc2ccccc2c1	175
O=C(O)C(F)(F)c1ccc2ccccc2c1	640

Target: T1, Tyrosine-protein phosphatase non-receptor type 1
Experiment: Binding affinity against Protein tyrosine phosphatase-1B (PTP1B)

SMILES	Ki [µM]
O=S(=O)(O)C(F)(F)c1cccc(-c2ccccc2)c1	49
FC(F)(c1cccc(-c2ccccc2)c1)c1nnn[nH]1	98

Target: T2, Tyrosine-protein phosphatase non-receptor type 1 (Homo sapiens) (UniProt P18031)
T2 sequence (whole entry): T1 sequence (P18031 whole entry)
Experiment: Inhibitory activity against protein tyrosine phosphatase 1B (PTP1B) at 500 uM conc. using fluorescein diphosphate as substrate at Km concentration (20 uM)

SMILES	inhibition [%]
O=S(=O)(O)Cc1ccc2ccccc2c1	5
c1ccc(-c2cccc(Cc3nnn[nH]3)c2)cc1	15
O=C(O)Cc1cccc(-c2ccccc2)c1	10
O=S(=O)(O)Cc1cccc(-c2ccccc2)c1	10
O=C(O)Cc1ccc2ccccc2c1	4
c1ccc2cc(Cc3nnn[nH]3)ccc2c1	12
O=P(O)(O)Cc1cccc(-c2ccccc2)c1	17
O=P(O)(O)Cc1ccc2ccccc2c1	9
